# Source: PubChem BioAssay (NCI)
#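 Following 48 hours of exposure in 96-well plates, responses at five concentrations were used to interpolate endpoints linearly. TGI: concentration producing complete growth inhibition.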
# Columns and labels:
# Test in all cases: NCI-60 cell line screen, 48 h
# A498 renal = test system: A498 renal
# UACC-62 melanoma = test system: UACC-62 melanoma
# A549 NSCLC = test system: A549 NSCLC
# MDA-MB-231 breast = test system: MDA-MB-231 breast
# M14 melanoma = test system: M14 melanoma
# IGROV1 ovarian = test system: IGROV1 ovarian
# OVCAR-3 ovarian = test system: OVCAR-3 ovarian
# HS 578T breast = test system: HS 578T breast
# SNB-19 CNS = test system: SNB-19 CNS
# SK-MEL-5 melanoma = test system: SK-MEL-5 melanoma
# NCI-H522 lung = test system: NCI-H522 lung
# SK-MEL-2 melanoma = test system: SK-MEL-2 melanoma
# CAKI-1 renal = test system: CAKI-1 renal
# MDA-N = test system: MDA-N
# SNB-75 CNS = test system: SNB-75 CNS
# COLO 205 colon = test system: COLO 205 colon
# RXF 393 renal = test system: RXF 393 renal
# HOP-62 NSCLC = test system: HOP-62 NSCLC
# K-562 leukemia = test system: K-562 leukemia
# ACHN renal = test system: ACHN renal
# HCC-2998 colon = test system: HCC-2998 colon
# NCI-H226 lung = test system: NCI-H226 lung
# SF-539 CNS = test system: SF-539 CNS
# HCT-116 colon = test system: HCT-116 colon
# NCI-H460 lung = test system: NCI-H460 lung
# TK-10 renal = test system: TK-10 renal
# EKVX NSCLC = test system: EKVX NSCLC
# MOLT-4 leukemia = test system: MOLT-4 leukemia
# 786-0 renal = test system: 786-0 renal
# HCT-15 colon = test system: HCT-15 colon
# OVCAR-5 ovarian = test system: OVCAR-5 ovarian
# U251 CNS = test system: U251 CNS
# UACC-257 melanoma = test system: UACC-257 melanoma
# UO-31 renal = test system: UO-31 renal
# CCRF-CEM leukemia = test system: CCRF-CEM leukemia
# SF-295 CNS = test system: SF-295 CNS
# HL-60(TB) leukemia = test system: HL-60(TB) leukemia
# RPMI-8226 leukemia = test system: RPMI-8226 leukemia
# SN12C renal = test system: SN12C renal
# KM12 colon = test system: KM12 colon
# SW-620 colon = test system: SW-620 colon
# NCI-H23 lung = test system: NCI-H23 lung
# BT-549 breast = test system: BT-549 breast
# OVCAR-8 ovarian = test system: OVCAR-8 ovarian
# HT29 colon = test system: HT29 colon
# MCF7 breast = test system: MCF7 breast
# NCI/ADR-RES ovarian = test system: NCI/ADR-RES ovarian
# SR leukemia = test system: SR leukemia
# SK-OV-3 ovarian = test system: SK-OV-3 ovarian
# HOP-92 NSCLC = test system: HOP-92 NSCLC
# MDA-MB-435 = test system: MDA-MB-435
# PC-3 prostate = test system: PC-3 prostate
# DU-145 prostate = test system: DU-145 prostate
# MALME-3M melanoma = test system: MALME-3M melanoma
# T-47D breast = test system: T-47D breast
# SF-268 CNS = test system: SF-268 CNS
# OVCAR-4 ovarian = test system: OVCAR-4 ovarian
# SK-MEL-28 melanoma = test system: SK-MEL-28 melanoma
# LOX IMVI melanoma = test system: LOX IMVI melanoma
smiles,measurement,setting,value
CC(C)(CN1CCCCC1)C(=O)CC(SCCS(=O)(=O)O)c1ccc(Cl)cc1 (stereo not drawn),TGI,A498 renal,13.5 µM
same,TGI,UACC-62 melanoma,13.6 µM
same,TGI,A549 NSCLC,23.5 µM
same,TGI,MDA-MB-231 breast,6.61 µM
same,TGI,M14 melanoma,9.19 µM
same,TGI,IGROV1 ovarian,20.4 µM
same,TGI,OVCAR-3 ovarian,17.9 µM
same,TGI,HS 578T breast,7.5 µM
same,TGI,SNB-19 CNS,28.9 µM
same,TGI,SK-MEL-5 melanoma,20.8 µM
same,TGI,NCI-H522 lung,6.29 µM
same,TGI,SK-MEL-2 melanoma,18.8 µM
same,TGI,CAKI-1 renal,18.3 µM
same,TGI,MDA-N,9.57 µM
same,TGI,SNB-75 CNS,15.1 µM
same,TGI,COLO 205 colon,8.94 µM
same,TGI,RXF 393 renal,9.92 µM
same,TGI,HOP-62 NSCLC,25 µM
same,TGI,K-562 leukemia,9.91 µM
same,TGI,ACHN renal,17.1 µM
same,TGI,HCC-2998 colon,26 µM
same,TGI,NCI-H226 lung,27.9 µM
same,TGI,SF-539 CNS,4.66 µM
same,TGI,HCT-116 colon,13.6 µM
same,TGI,NCI-H460 lung,25.2 µM
same,TGI,TK-10 renal,18.9 µM
same,TGI,EKVX NSCLC,11.8 µM
same,TGI,MOLT-4 leukemia,6.63 µM
same,TGI,786-0 renal,8.91 µM
same,TGI,HCT-15 colon,6.66 µM
same,TGI,OVCAR-5 ovarian,11.4 µM
same,TGI,U251 CNS,22.3 µM
same,TGI,UACC-257 melanoma,20.5 µM
same,TGI,UO-31 renal,15.1 µM
same,TGI,CCRF-CEM leukemia,6.04 µM
same,TGI,SF-295 CNS,15.8 µM
same,TGI,HL-60(TB) leukemia,8.13 µM
same,TGI,RPMI-8226 leukemia,6.65 µM
same,TGI,SN12C renal,15.8 µM
same,TGI,KM12 colon,19.2 µM
same,TGI,SW-620 colon,9.07 µM
same,TGI,NCI-H23 lung,16.6 µM
same,TGI,BT-549 breast,22.7 µM
same,TGI,OVCAR-8 ovarian,11.1 µM
same,TGI,HT29 colon,12.6 µM
same,TGI,MCF7 breast,11.8 µM
same,TGI,NCI/ADR-RES ovarian,34 µM
same,TGI,SR leukemia,4.82 µM
same,TGI,SK-OV-3 ovarian,28.8 µM
same,TGI,HOP-92 NSCLC,7.13 µM
same,TGI,MDA-MB-435,10.6 µM
same,TGI,PC-3 prostate,18.1 µM
same,TGI,DU-145 prostate,21.7 µM
same,TGI,MALME-3M melanoma,24.3 µM
CCOC(=O)C1C(c2ccc(OC)cc2)c2c([nH]n(-c3ccccc3)c2=O)CC1(C)O (stereo not drawn),TGI,A498 renal,> 100 µM
same,TGI,UACC-62 melanoma,> 100 µM
same,TGI,A549 NSCLC,> 100 µM
same,TGI,T-47D breast,> 100 µM
same,TGI,SF-268 CNS,> 100 µM
same,TGI,MDA-MB-231 breast,> 100 µM
same,TGI,OVCAR-4 ovarian,> 100 µM
same,TGI,M14 melanoma,> 100 µM
same,TGI,IGROV1 ovarian,> 100 µM
same,TGI,OVCAR-3 ovarian,> 100 µM
same,TGI,HS 578T breast,> 100 µM
same,TGI,SNB-19 CNS,> 100 µM
same,TGI,SK-MEL-5 melanoma,> 100 µM
same,TGI,NCI-H522 lung,> 100 µM
same,TGI,SK-MEL-2 melanoma,> 100 µM
same,TGI,CAKI-1 renal,> 100 µM
same,TGI,MDA-N,> 100 µM
same,TGI,SNB-75 CNS,> 100 µM
same,TGI,COLO 205 colon,50.4 µM
same,TGI,SK-MEL-28 melanoma,> 100 µM
same,TGI,HOP-62 NSCLC,> 100 µM
same,TGI,ACHN renal,> 100 µM
same,TGI,HCC-2998 colon,> 100 µM
same,TGI,SF-539 CNS,> 100 µM
same,TGI,HCT-116 colon,> 100 µM
same,TGI,NCI-H460 lung,> 100 µM
same,TGI,TK-10 renal,> 100 µM
same,TGI,EKVX NSCLC,> 100 µM
same,TGI,MOLT-4 leukemia,6.35 µM
same,TGI,786-0 renal,> 100 µM
same,TGI,HCT-15 colon,> 100 µM
same,TGI,OVCAR-5 ovarian,> 100 µM
same,TGI,U251 CNS,> 100 µM
same,TGI,UACC-257 melanoma,> 100 µM
same,TGI,UO-31 renal,> 100 µM
same,TGI,CCRF-CEM leukemia,35.6 µM
same,TGI,SF-295 CNS,> 100 µM
same,TGI,HL-60(TB) leukemia,11.1 µM
same,TGI,RPMI-8226 leukemia,> 100 µM
same,TGI,SN12C renal,> 100 µM
same,TGI,KM12 colon,> 100 µM
same,TGI,SW-620 colon,> 100 µM
same,TGI,NCI-H23 lung,> 100 µM
same,TGI,OVCAR-8 ovarian,> 100 µM
same,TGI,HT29 colon,> 100 µM
same,TGI,MCF7 breast,> 100 µM
same,TGI,NCI/ADR-RES ovarian,> 100 µM
same,TGI,SR leukemia,> 100 µM
same,TGI,LOX IMVI melanoma,> 100 µM
same,TGI,HOP-92 NSCLC,> 100 µM
same,TGI,MDA-MB-435,> 100 µM
same,TGI,PC-3 prostate,> 100 µM
same,TGI,DU-145 prostate,> 100 µM
same,TGI,MALME-3M melanoma,> 100 µM
